Measurements reported in patent EP0327492A1, “Herbicidally and plantgrowth regulatory active quinoline and pyrindine compounds” (CIBA-GEIGY AG, priority 1988, dated 1989).

Experiments:
Assay type in all cases: in vivo
[1] = system: Untersaaten in Mais; test: Pre-post selectivity: growth inhibition of undersown grasses (post-emergent) versus maize (pre-emergent)
Excerpt: Verbindungen der Formel I zeigen in vorteilhafter Weise eine "pre-post-Selektivität" bei verscheidenen Gräsern in Maiskulturen.
Die wuchshemmende Wirkung in Gräsern ist in postemergenter Applikation stark ausgeprägt, während bei gleichzeitiger Preemergenter Applikation Maispflanzen in ihrem Wuchs nur geringfügig gehemmt werden. Derartige "pre-post-Selektivitäten" erlauben somit die Aussaat von Mais in Gräsern. Dabei soll der Zeitpunkt für die Applikation der Aktivsubstanz der Formel so gewählt werden, dass die Aktivsubstanz postemergent für die Gräser ober preemergent für den Mais angewendet wird. In den ersten Wochen ist der Zuwachs der Gräser so stark gehemmt, dass die Maispflanze sich ungehindert entfalten kann.
Eine Mischung von Gräsern (z.B. Poa, Festuca, Lolium, Bromus, Cynosurus) werden in 15 cm - Kunststofftöpfen mit steriler Landerde angesät und im Gewächshaus bei einer Tagestemperatur von 21°C und einer Nachttemperatur von 17°C angezogen. Die Beleuchtungsdauer beträgt 13,5 Stunden/Tag bei einer Lichtintensität von mind. 7000 Lux. Nach dem Ablauf werden die Pflanzen wöchentlich auf ca. 6 cm Höhe zurückgeschnitten. Ca. 42 Tage nach der Saat und 1 Tag nach dem letzten Schnitt erfolgt die Applikation mit 60-500 g Wirkstoff/ha als wässrige Spritzbrühe. Die Wasseraufwandmenge ist ca. 500 I/ha.
20 Tage nach der Behandlung wird der Versuch ausgewertet. Hierbei wird die Höhe des Neuzuwachses gemessen und in % Hemmung zum Durchschnitt der unbehandelten Kontrollen dargestellt. Die nekrotischen Schäden sind in % zur gesamten Blattfläche aufgeführt.
Mais der Sorte Blizzard G188 werden in 15 cm - Kunststofftöpfen mit steriler gesiebter Landerde angesät und im Gewächshaus bei einer Tagestemperatur von 22°C und einer Nachttemperatur von 19°C aufgestellt. Die Beleuchtungsdauer beträgt mindestens 13,5 Stunden/Tag bei einer Lichtintensität von mindestens 7000 Lux. 1 Tag nach der Saat erfolgt die Applikation mit 60-500 g Wirkstoff/ha, in der Regel 25 %ig formuliert und in wässriger Spritzbrühe. Die Wasseraufwandmenge ist ca. 200 I/ha.
16 Tage nach der Behandlung wird der Versuch ausgewertet. […]

[2] = system: Baumwolle; test: Post-emergent herbicidal action (B.3), crop tolerance; conditions: 500 bis 2000 [g/ha], 15 days after treatment
Description: (§1) Im Gewächshaus wird unmittelbar nach der Einsaat der Versuchspflanzen in Saatschalen die Erdoberfläche mit einer wässrigen Dispersion der Wirkstoffe, erhalten aus einem 25 %igen Emulsionskonzentrat behandelt. Es werden Konzentrationen von 2000-500 g Wirksubstanz/Hektar angewendet. Die Saatschalen werden im Gewächshaus bei 22-25° C und 50-70 % relativer Luftfeuchtigkeit gehalten und der Versuch nach 3 Wochen ausgewertet und die Resultate nach folgender Notenskala ausgewertet. • 1 Pflanze hat nicht gekeimt oder ist eingegangen • 2-3 sehr starke Schäden • 4 starke Schäden • 5 mittlere Schäden, die Pflanzen sind verkümmert • 6 Schäden, die Pflanze kann regenerieren • 7-8 leichte Schäden • 9 normales Wachstum, wie das unbehandelter Pflanzen
(§2) Boniturnoten von 1 bis 4 (insbesondere von 1 bis 3) weisen auf eine gute bis sehr gute Herbizidwirkung hin. Boniturnoten von 6 bis 9 (insbesondere 7 bis 9) weisen auf eine gute Toleranz (insbesondere bei Kulturpflanzen) hin.
(§3) Eine Anzahl Unkräuter, sowohl monokotyle wie dikotyle, werden nach dem Auflaufen (im 4- bis 6-Blattstadium) mit einer wässrigen Wirkstoffdispersion in einer Dosierung von 2000-500 g Wirksubstanz pro Hektar auf die Pflanzen gespritzt und diese bei 24°-26°C und 45-60 % relativer Luftfeuchtigkeit gehalten. 15 Tage nach der Behandlung wird der Versuch nach dem in Beispiel B.2. gegebenen Massstab bewertet.

[3] = system: Soja; test: as above; conditions: 500 bis 2000 [g/ha], 15 days after treatment
Description: as §1, §2, §3

[4] = system: Alopecurus myos.; test: Post-emergent herbicidal action, contact herbicide (B.3); conditions: 500 bis 2000 [g/ha], 15 days after treatment
Description: as §1, §2, §3

[5] = system: Xanthium Sp.; test: as above; conditions: 500 bis 2000 [g/ha], 15 days after treatment
Description: as §1, §2, §3

[6] = system: Lolium perenne; test: as above; conditions: 500 bis 2000 [g/ha], 15 days after treatment
Description: as §1, §2, §3

[7] = system: Avena fatua; test: as above; conditions: 500 bis 2000 [g/ha], 15 days after treatment
Description: as §1, §2, §3

[8] = system: Chrysanthe. leuc.; test: as above; conditions: 500 bis 2000 [g/ha], 15 days after treatment
Description: as §1, §2, §3

[9] = system: Abutilon; test: as above; conditions: 500 bis 2000 [g/ha], 15 days after treatment
Description: as §1, §2, §3

[10] = system: Echinochloa crus galli; test: as above; conditions: 500 bis 2000 [g/ha], 15 days after treatment
Description: as §1, §2, §3

[11] = system: Sorghum halep.; test: as above; conditions: 500 bis 2000 [g/ha], 15 days after treatment
Description: as §1, §2, §3

[12] = system: Veronica Sp.; test: as above; conditions: 500 bis 2000 [g/ha], 15 days after treatment
Description: as §1, §2, §3

[13] = system: Amaranthus ret.; test: as above; conditions: 500 bis 2000 [g/ha], 15 days after treatment
Description: as §1, §2, §3

[14] = system: Stellaria; test: as above; conditions: 500 bis 2000 [g/ha], 15 days after treatment
Description: as §1, §2, §3

[15] = system: Digitaria sang.; test: as above; conditions: 500 bis 2000 [g/ha], 15 days after treatment
Description: as §1, §2, §3

[16] = system: Galium aparine; test: as above; conditions: 500 bis 2000 [g/ha], 15 days after treatment
Description: as §1, §2, §3

[17] = system: Bromus tectorum; test: as above; conditions: 500 bis 2000 [g/ha], 15 days after treatment
Description: as §1, §2, §3

[18] = system: Sinapis; test: as above; conditions: 500 bis 2000 [g/ha], 15 days after treatment
Description: as §1, §2, §3

[19] = system: Chenopodium Sp.; test: as above; conditions: 500 bis 2000 [g/ha], 15 days after treatment
Description: as §1, §2, §3

[20] = system: Solanum nigrum; test: as above; conditions: 500 bis 2000 [g/ha], 15 days after treatment
Description: as §1, §2, §3

SMILES	"pre-post-Selektivität" bei Untersaaten in Mais [1]	Toleranz (im Wachstum beeinflusst) [2]	Toleranz (im Wachstum beeinflusst) [3]	Herbizidwirkung [4]	Herbizidwirkung [5]	Herbizidwirkung [6]	Herbizidwirkung [7]	Herbizidwirkung [8]	Herbizidwirkung [9]	Herbizidwirkung [10]	Herbizidwirkung [11]	Herbizidwirkung [12]	Herbizidwirkung [13]	Herbizidwirkung [14]	Herbizidwirkung [15]	Herbizidwirkung [16]	Herbizidwirkung [17]	Herbizidwirkung [18]	Herbizidwirkung [19]	Herbizidwirkung [20]
CC1CCc2cc3c(nc2C1)C1=NC(C)(C(C)C)C(=O)N1C3=O (stereo not drawn) [Verbindung 3.03, 2,9-Dimethyl-2-isopropyl-7,8,9,10-tetrahydro-3H,5H-imidazo[1',2':1,2]pyrrolo[3,4-b]chinolin-3,5-dion]	ausgeprägter "pre-post-Selektivität"	–	–	–	–	–	–	–	–	–	–	–	–	–	–	–	–	–	–	–
CC1CCc2nc(C3=NC(=O)C(C)(C(C)C)N3)c(C(=O)O)cc21 (stereo not drawn) [Verbindung 2.06, 7H-5,6-Dihydro-2-(5-isopropyl-5-methyl-1 H-imidazol-4-on-2-yl)-5-methyl-1-pyrindin-3-carbonsäure]	–	gute Toleranz (Boniturnoten von 6 bis 9 (insbesondere 7 bis 9) weisen auf eine gute Toleranz (insbesondere bei Kulturpflanzen) hin)	gute Toleranz (Boniturnoten von 6 bis 9 (insbesondere 7 bis 9) weisen auf eine gute Toleranz (insbesondere bei Kulturpflanzen) hin)	gute bis sehr gute Herbizidwirkung (Boniturnoten von 1 bis 4 (insbesondere von 1 bis 3) weisen auf eine gute bis sehr gute Herbizidwirkung hin)	gute bis sehr gute Herbizidwirkung (Boniturnoten von 1 bis 4 (insbesondere von 1 bis 3) weisen auf eine gute bis sehr gute Herbizidwirkung hin)	gute bis sehr gute Herbizidwirkung (Boniturnoten von 1 bis 4 (insbesondere von 1 bis 3) weisen auf eine gute bis sehr gute Herbizidwirkung hin)	gute bis sehr gute Herbizidwirkung (Boniturnoten von 1 bis 4 (insbesondere von 1 bis 3) weisen auf eine gute bis sehr gute Herbizidwirkung hin)	gute bis sehr gute Herbizidwirkung (Boniturnoten von 1 bis 4 (insbesondere von 1 bis 3) weisen auf eine gute bis sehr gute Herbizidwirkung hin)	gute bis sehr gute Herbizidwirkung (Boniturnoten von 1 bis 4 (insbesondere von 1 bis 3) weisen auf eine gute bis sehr gute Herbizidwirkung hin)	gute bis sehr gute Herbizidwirkung (Boniturnoten von 1 bis 4 (insbesondere von 1 bis 3) weisen auf eine gute bis sehr gute Herbizidwirkung hin)	gute bis sehr gute Herbizidwirkung (Boniturnoten von 1 bis 4 (insbesondere von 1 bis 3) weisen auf eine gute bis sehr gute Herbizidwirkung hin)	gute bis sehr gute Herbizidwirkung (Boniturnoten von 1 bis 4 (insbesondere von 1 bis 3) weisen auf eine gute bis sehr gute Herbizidwirkung hin)	gute bis sehr gute Herbizidwirkung (Boniturnoten von 1 bis 4 (insbesondere von 1 bis 3) weisen auf eine gute bis sehr gute Herbizidwirkung hin)	gute bis sehr gute Herbizidwirkung (Boniturnoten von 1 bis 4 (insbesondere von 1 bis 3) weisen auf eine gute bis sehr gute Herbizidwirkung hin)	gute bis sehr gute Herbizidwirkung (Boniturnoten von 1 bis 4 (insbesondere von 1 bis 3) weisen auf eine gute bis sehr gute Herbizidwirkung hin)	gute bis sehr gute Herbizidwirkung (Boniturnoten von 1 bis 4 (insbesondere von 1 bis 3) weisen auf eine gute bis sehr gute Herbizidwirkung hin)	gute bis sehr gute Herbizidwirkung (Boniturnoten von 1 bis 4 (insbesondere von 1 bis 3) weisen auf eine gute bis sehr gute Herbizidwirkung hin)	gute bis sehr gute Herbizidwirkung (Boniturnoten von 1 bis 4 (insbesondere von 1 bis 3) weisen auf eine gute bis sehr gute Herbizidwirkung hin)	gute bis sehr gute Herbizidwirkung (Boniturnoten von 1 bis 4 (insbesondere von 1 bis 3) weisen auf eine gute bis sehr gute Herbizidwirkung hin)	gute bis sehr gute Herbizidwirkung (Boniturnoten von 1 bis 4 (insbesondere von 1 bis 3) weisen auf eine gute bis sehr gute Herbizidwirkung hin)
CC(C)C1(C)NC(c2nc3c(cc2C(=O)O)C(C)(C)CCC3)=NC1=O (stereo not drawn) [Verbindung 2.12, 2-(5-Isopropyl-5-methyl-1 H-imidazol-4-on-2-yl)-5,5-dimethyl-5,6,7,8-tetrahydrochinolin-3-carbonsäure]	ausgeprägter "pre-post-Selektivität"	–	–	–	–	–	–	–	–	–	–	–	–	–	–	–	–	–	–	–
